Assay results taken from PubChem BioAssay (NCI).
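Assay format: 96-well plates, 48-hour exposure. TGI denotes the concentration required for complete inhibition of growth.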

What was measured:
Assay in all cases: NCI tumour cell line growth inhibition, 48 h
A549 NSCLC = system: A549 NSCLC
K-562 leukemia = system: K-562 leukemia
LOX IMVI melanoma = system: LOX IMVI melanoma
NCI-H23 lung = system: NCI-H23 lung
OVCAR-4 ovarian = system: OVCAR-4 ovarian
SK-MEL-2 melanoma = system: SK-MEL-2 melanoma
SR leukemia = system: SR leukemia
SW-620 colon = system: SW-620 colon
UACC-257 melanoma = system: UACC-257 melanoma

SMILES | TGI (A549 NSCLC) | TGI (K-562 leukemia) | TGI (LOX IMVI melanoma) | TGI (NCI-H23 lung) | TGI (OVCAR-4 ovarian) | TGI (SK-MEL-2 melanoma) | TGI (SR leukemia) | TGI (SW-620 colon) | TGI (UACC-257 melanoma)
O=C(CO)CC(=O)C(=O)Nc1cccc(C(F)(F)F)c1 | > 100 µM | > 100 µM | > 100 µM | > 100 µM | > 100 µM | > 100 µM | > 100 µM | > 100 µM | > 100 µM
CC1(C)C2=CCCC(=O)[C@@]2(C)CC[C@@H]1O | > 100 µM | > 100 µM | > 100 µM | > 100 µM | > 100 µM | > 100 µM | > 100 µM | > 100 µM | > 100 µM
CCCCCCCCCCCCCP(=O)(OC)OC | 36.9 µM | 45.2 µM | 35.3 µM | 35.6 µM | 34.6 µM | 31.3 µM | 38.4 µM | 32.4 µM | 33.7 µM
c1ccc(N2CCN(CCCN3CCc4c([nH]c5ccccc45)C3c3cccnc3)CC2)cc1 (stereo not drawn) | > 100 µM | > 65.6 µM | > 100 µM | > 100 µM | > 100 µM | > 100 µM | > 71.1 µM | > 100 µM | > 79.9 µM
CN(CCc1ccccn1)/[N+]([O-])=N/O (tested in a mixture with another compound) | > 100 µM | > 100 µM | – | > 100 µM | > 100 µM | > 100 µM | > 100 µM | > 100 µM | > 100 µM
CCCc1nn(C)c(CCC(=O)N(Cc2ccccc2)Cc2ccccc2)c1CC | > 100 µM | – | > 100 µM | > 100 µM | > 100 µM | > 100 µM | – | > 100 µM | > 100 µM
CCN(CC)CCCNc1nccc2c(C)c3[nH]c4ccncc4c(=O)c3cc12 | 14.2 µM | 13 µM | 3.26 µM | 7.34 µM | 3.07 µM | 9.34 µM | 2.23 µM | 16.1 µM | 31.7 µM
CCCCCCCCC1C(C)c2c([nH]c3ccccc23)C2C(=O)N(c3ccccc3)C(=O)C21 (stereo not drawn) | 38 µM | 14.7 µM | – | 14.7 µM | 15.8 µM | 33.3 µM | – | 41.5 µM | –
CSC(=NC(=O)c1ccccc1)SCCSC(=NC(=O)c1ccccc1)SC | > 100 µM | > 100 µM | > 100 µM | > 100 µM | 87.6 µM | > 100 µM | – | > 100 µM | > 100 µM
CC(=O)OC(C)(C)C[N+](=O)[O-] | > 100 µM | > 100 µM | > 100 µM | > 100 µM | > 100 µM | > 100 µM | > 100 µM | > 100 µM | > 100 µM
CC1(C)C=C(N2CCN(C3=CC(C)(C)NC(C)(C)C3)CC2)CC(C)(C)N1 | > 100 µM | > 100 µM | > 100 µM | > 100 µM | > 100 µM | – | > 100 µM | > 100 µM | > 100 µM
CCCCCCCCCCCCCC(=O)NO | 42.9 µM | 34.8 µM | 15.5 µM | 31.1 µM | 39.3 µM | 47.6 µM | > 100 µM | 82.6 µM | 77.3 µM
CC(/C=C1\CCC(CN(C)C)C1=O)c1cccc(Br)c1 (stereo not drawn) | > 96.2 µM | 9.43 µM | – | 38 µM | 32.3 µM | 30.5 µM | – | 26.2 µM | 31.6 µM
Cc1ccc(-c2nc3ccccc3c(=O)n2NC2OC(CO)C(O)C(O)C2O)cc1 (stereo not drawn) | > 100 µM | > 100 µM | – | > 100 µM | > 100 µM | > 100 µM | – | > 100 µM | > 100 µM
CC(=O)CCn1[nH]c(=O)c(Cl)c(Cl)c1=O | > 100 µM | > 100 µM | > 100 µM | > 100 µM | > 100 µM | > 100 µM | > 100 µM | 45.3 µM | > 100 µM
O=C(CC1(O)C(=O)Nc2c(Cl)cc(Cl)cc21)c1ccc([N+](=O)[O-])cc1 (stereo not drawn) | > 100 µM | > 100 µM | > 100 µM | > 78.9 µM | 31.2 µM | > 100 µM | > 80.6 µM | > 63 µM | > 54.3 µM
C=C1CCCC2OC(OC)CCC12 (stereo not drawn) | > 100 µM | > 100 µM | – | > 100 µM | > 100 µM | > 100 µM | > 100 µM | > 100 µM | > 100 µM
O=C(O)C1C2C=CC(O2)C1C(=O)NCc1ccncc1 (stereo not drawn) | > 100 µM | > 100 µM | > 100 µM | – | > 100 µM | > 100 µM | > 100 µM | > 100 µM | > 100 µM
